Measurements as given in patent US12617752B2, “Rapidly metabolized lipid compound” (Beijing Jitai Life Sciences Ltd, priority 2023, dated 2026).

How the values were obtained:
[1] = Particle size and PDI of lipid nanoparticles by dynamic light scattering; assay type: physicochemical; conditions: lipid nanoparticles with luciferase mRNA; ionizable lipid/cholesterol/DSPC/DMG-PEG2000 50/38.5/10/1.5 mol%
Outline: (§1)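 LNPs of ionizable lipid/cholesterol/phospholipid/PEG-lipid (50/38.5/10/1.5 mol%, N/P 6) were formed by microfluidic mixing with mRNA in pH 4.5 acetate, then buffer-exchanged by ultrafiltration. Size and PDI were measured by DLS. Encapsulation came from RiboGreen fluorescence (485/528 nm) in TE pH 7.5, with and without 0.5% Triton at 37 °C for 30 min.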

[2] = Clearance rate of ionizable lipids in vivo (liver content by LC-MS/MS); conditions: C57 WT female mice, tail vein, 100 μL unloaded LNP (0.1 mg/mL)
Description: The 6-8 weeks old C57 WT female mice (n=3) were injected by tail vein administration of 100 μL of unloaded LNP (0.1 mg/mL) formed from the ionizable lipid, cholesterol, DSPC, and DMG-PEG 2000 at a ratio of 50:38.5:10:1.5. The experimental animals were executed by removing the cervical vertebrae and dissected for the liver at 24 h and 72 h after administration, respectively, while the same batch of non-dosed experimental animal livers were used as a blank control group. Water was added to the liver sample for homogenization, and the protein was precipitated. The content of the ionizable lipid in the sample was quantitatively analyzed using LC-MS/MS in comparison to a calibration standard prepared from matched blank liver tissues.

C57BL/6 mice = assay: In vivo delivery of luciferase mRNA lipid nanoparticles in mice (bioluminescence imaging); conditions: intravenous, single dose 0.5 mg/kg luciferase mRNA
Outline: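 Female C57BL/6 mice, 6-8 weeks old, received luciferase mRNA lipid nanoparticles as a single intravenous dose of 0.5 mg/kg mRNA. At 6 h, D-luciferin given intraperitoneally; 10 min later, mice were imaged under isoflurane anaesthesia. Values are group mean fluorescence intensity and total photon count.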

[3] = Encapsulation efficiency of lipid nanoparticles (Quant-it RiboGreen RNA Assay); assay type: physicochemical; conditions: lipid nanoparticles with luciferase mRNA
Outline: as §1

CCCCCCCCCOC(=O)CCCCCCCN(CCO)CCCCCCC(C)(C)C(=O)OC(CCCCCCCC)CCCCCCCC [1a]
Particle size (nm) [1]: 113.08 nm
Particle-size distribution (PDI) [1]: 0.022
Percentage of cationic lipids in the liver in the total dose, 24 h after administration (%) [2]: <1%
Percentage of cationic lipids in the liver in the total dose, 72 h after administration (%) [2]: 0%
Total photon count in vivo at 6 hours after administration (Total Flux) (C57BL/6 mice): 3.52E+10
Encapsulation efficiency (%) [3]: 94.61%

CCCCCCCCCC(=O)OCC(C)(C)CCCCCN(CCO)CCCCCCCC(=O)OC(CCCCCCCC)CCCCCCCC [1b]
Particle size (nm) [1]: 88.59 nm
Particle-size distribution (PDI) [1]: 0.031
Percentage of cationic lipids in the liver in the total dose, 24 h after administration (%) [2]: 15 ± 4.2%
Percentage of cationic lipids in the liver in the total dose, 72 h after administration (%) [2]: <1%
Total photon count in vivo at 6 hours after administration (Total Flux) (C57BL/6 mice): 9.34E+10
Encapsulation efficiency (%) [3]: 89.89%

CCCCCCCCCC(=O)OCC(C)(C)CCCCCN(CCCCO)CCCCCCCC(=O)OC(CCCCCCCC)CCCCCCCC [3b]
Particle size (nm) [1]: 102.32 nm
Particle-size distribution (PDI) [1]: 0.015
Percentage of cationic lipids in the liver in the total dose, 24 h after administration (%) [2]: 12 ± 3.8%
Percentage of cationic lipids in the liver in the total dose, 72 h after administration (%) [2]: <1%
Total photon count in vivo at 6 hours after administration (Total Flux) (C57BL/6 mice): 1.41E+11
Encapsulation efficiency (%) [3]: 74.43%

CCCCCCCCCOC(=O)CCCCCCCN(CCCO)CCCCCCC(C)(C)C(=O)OC(CCCCCCCC)CCCCCCCC [4a]
Particle size (nm) [1]: 103.7 nm
Particle-size distribution (PDI) [1]: 0.005
Percentage of cationic lipids in the liver in the total dose, 24 h after administration (%) [2]: <1%
Percentage of cationic lipids in the liver in the total dose, 72 h after administration (%) [2]: 0%
Total photon count in vivo at 6 hours after administration (Total Flux) (C57BL/6 mice): 3.25E+10
Encapsulation efficiency (%) [3]: 92.87%

CCCCCCCCCC(=O)OCC(C)(C)CCCCCN(CCO)CCCCCCCC(=O)OCCC(CCCCCC)CCCCCC [10b]
Particle size (nm) [1]: 114.72 nm
Particle-size distribution (PDI) [1]: 0.052
Percentage of cationic lipids in the liver in the total dose, 24 h after administration (%) [2]: 5 ± 3.1%
Percentage of cationic lipids in the liver in the total dose, 72 h after administration (%) [2]: <1%
Total photon count in vivo at 6 hours after administration (Total Flux) (C57BL/6 mice): 3.15E+10
Encapsulation efficiency (%) [3]: 72.72%

CCCCCCCCCC(=O)OCC(C)(C)CCCCCN(CCO)CCCCCCCC(=O)OCCCCC(CCCC)CCCC [12b]
Particle size (nm) [1]: 104.60 nm
Particle-size distribution (PDI) [1]: 0.031
Percentage of cationic lipids in the liver in the total dose, 24 h after administration (%) [2]: <1%
Percentage of cationic lipids in the liver in the total dose, 72 h after administration (%) [2]: 0%
Total photon count in vivo at 6 hours after administration (Total Flux) (C57BL/6 mice): 1.19E+10
Encapsulation efficiency (%) [3]: 91.04%

CCCCCCCCCC(=O)OCC(C)(C)CCCCCN(CCO)CCCCCCCC(=O)OCC(CCCCCCC)CCCCCCC [13b]
Particle size (nm) [1]: 99.02 nm
Particle-size distribution (PDI) [1]: 0.018
Percentage of cationic lipids in the liver in the total dose, 24 h after administration (%) [2]: 8 ± 2.7%
Percentage of cationic lipids in the liver in the total dose, 72 h after administration (%) [2]: <1%
Total photon count in vivo at 6 hours after administration (Total Flux) (C57BL/6 mice): 1.81E+11
Encapsulation efficiency (%) [3]: 89.27%

CCCCCCCCCC(=O)OCC1(CCCCCN(CCO)CCCCCCCC(=O)OCC(CCCCCCC)CCCCCCC)CC1 [22b]
Particle size (nm) [1]: 99.44 nm
Particle-size distribution (PDI) [1]: 0.050
Percentage of cationic lipids in the liver in the total dose, 24 h after administration (%) [2]: 2%
Percentage of cationic lipids in the liver in the total dose, 72 h after administration (%) [2]: <1%
Total photon count in vivo at 6 hours after administration (Total Flux) (C57BL/6 mice): 8.78E+10
Encapsulation efficiency (%) [3]: 93.03%

CCCCCCCCCCOC(=O)OCCCCCCN(CCO)CCCCCC(C)(C)COC(=O)CCC(CCCCCC)CCCCCC [26b]
Particle size (nm) [1]: 113.77 nm
Particle-size distribution (PDI) [1]: 0.14
Percentage of cationic lipids in the liver in the total dose, 24 h after administration (%) [2]: 8%
Percentage of cationic lipids in the liver in the total dose, 72 h after administration (%) [2]: <1%
Total photon count in vivo at 6 hours after administration (Total Flux) (C57BL/6 mice): 6.53E+10
Encapsulation efficiency (%) [3]: 94.58%

CCCCCCCCCOC(=O)OCCCCCCN(CCO)CCCCCCC(C)(C)C(=O)OC(CCCCCCCC)CCCCCCCC [30a]
Particle size (nm) [1]: 107.40 nm
Particle-size distribution (PDI) [1]: 0.12
Percentage of cationic lipids in the liver in the total dose, 24 h after administration (%) [2]: 4%
Percentage of cationic lipids in the liver in the total dose, 72 h after administration (%) [2]: <2%
Total photon count in vivo at 6 hours after administration (Total Flux) (C57BL/6 mice): 8.32E+10
Encapsulation efficiency (%) [3]: 86.94%

CCCCCCCCCC(=O)OCCC(C)(C)CCCCN(CCCCO)CCCCCCC(=O)OCCC(CCCCCCC)CCCCCCC [104b]
Particle size (nm) [1]: 135.57 nm
Particle-size distribution (PDI) [1]: 0.09
Total photon count in vivo at 6 hours after administration (Total Flux) (C57BL/6 mice): 3.20E+10
Encapsulation efficiency (%) [3]: 91.51%

CCCCCCCCC(=O)OCCC(C)(C)CCCCCN(CCO)CCCCCCC(=O)OCC(CCCCCCCC)CCCCCCCC [105b]
Particle size (nm) [1]: 89.73 nm
Particle-size distribution (PDI) [1]: 0.16
Total photon count in vivo at 6 hours after administration (Total Flux) (C57BL/6 mice): 9.24E+10
Encapsulation efficiency (%) [3]: 94.38%

CCCCCCCCCC(=O)OCCC(C)(C)CCCCCN(CCO)CCCCCCC(=O)OCC(CCCCCCCCC)CCCCCCCCC [106b]
Particle size (nm) [1]: 88.22 nm
Particle-size distribution (PDI) [1]: 0.15
Total photon count in vivo at 6 hours after administration (Total Flux) (C57BL/6 mice): 1.42E+11
Encapsulation efficiency (%) [3]: 94.89%

CCCCCCCCCC(=O)OCCC(C)(C)CCCCCN(CCO)CCCCCCCCC(=O)OCC(CCCCCCC)CCCCCCC [107b]
Particle size (nm) [1]: 88.13 nm
Particle-size distribution (PDI) [1]: 0.16
Total photon count in vivo at 6 hours after administration (Total Flux) (C57BL/6 mice): 1.98E+11
Encapsulation efficiency (%) [3]: 94.05%

CCCCCCCCCC(=O)OCCC(C)(C)CCCCCN(CCO)CCCCCCC(=O)OCCC(CCCCCCCC)CCCCCCCC [108b]
Particle size (nm) [1]: 86.61 nm
Particle-size distribution (PDI) [1]: 0.16
Total photon count in vivo at 6 hours after administration (Total Flux) (C57BL/6 mice): 1.38E+11
Encapsulation efficiency (%) [3]: 94.16%

CCCCCCCCCC(=O)OCCC(C)(C)CCCCCN(CCCCO)CCCCCCC(=O)OCCC(CCCCCCCC)CCCCCCCC [109b]
Particle size (nm) [1]: 95.32 nm
Particle-size distribution (PDI) [1]: 0.13
Total photon count in vivo at 6 hours after administration (Total Flux) (C57BL/6 mice): 1.90E+11
Encapsulation efficiency (%) [3]: 93.00%

CCCCCCCCC(=O)OCC(C)(C)CCCCCCN(CCO)CCCCCCC(=O)OCC(CCCCCCCC)CCCCCCCC [110b]
Particle size (nm) [1]: 133.93 nm
Particle-size distribution (PDI) [1]: 0.21
Total photon count in vivo at 6 hours after administration (Total Flux) (C57BL/6 mice): 1.36E+11
Encapsulation efficiency (%) [3]: 85.48%

CCCCCCCCCC(=O)OCCCC(C)(C)CCCN(CCO)CCCCCCCCC(=O)OCC(CCCCCC)CCCCCC [111b]
Particle size (nm) [1]: 187.13 nm
Particle-size distribution (PDI) [1]: 0.21
Total photon count in vivo at 6 hours after administration (Total Flux) (C57BL/6 mice): 3.98E+10
Encapsulation efficiency (%) [3]: 63.26%

CCCCCCCCCC(=O)OCCCC(C)(C)CCCN(CCCO)CCCCCCCCC(=O)OCC(CCCCCC)CCCCCC [112b]
Particle size (nm) [1]: 175.67 nm
Particle-size distribution (PDI) [1]: 0.17
Total photon count in vivo at 6 hours after administration (Total Flux) (C57BL/6 mice): 1.31E+10
Encapsulation efficiency (%) [3]: 69.74%

CCCCCCCCCC(=O)OCCCC(C)(C)CCCN(CCCCO)CCCCCCCCC(=O)OCC(CCCCCC)CCCCCC [113b]
Particle size (nm) [1]: 147.03 nm
Particle-size distribution (PDI) [1]: 0.09
Total photon count in vivo at 6 hours after administration (Total Flux) (C57BL/6 mice): 2.09E+10
Encapsulation efficiency (%) [3]: 88.21%

CCCCCCCCCCC(=O)OCCCC(C)(C)CCCN(CCCO)CCCCCCC(=O)OCC(CCCCCCCCC)CCCCCCCCC [114b]
Particle size (nm) [1]: 103.40 nm
Particle-size distribution (PDI) [1]: 0.13
Total photon count in vivo at 6 hours after administration (Total Flux) (C57BL/6 mice): 4.53E+10
Encapsulation efficiency (%) [3]: 93.55%

CCCCCCCCCCC(=O)OCCCC(C)(C)CCCN(CCCCO)CCCCCCC(=O)OCC(CCCCCCCCC)CCCCCCCCC [115b]
Particle size (nm) [1]: 100.25 nm
Particle-size distribution (PDI) [1]: 0.12
Total photon count in vivo at 6 hours after administration (Total Flux) (C57BL/6 mice): 3.71E+10
Encapsulation efficiency (%) [3]: 93.91%

CCCCCCCCCCC(=O)OCCCC(C)(C)CCCN(CCCCO)CCCCCCCCC(=O)OCC(CCCCCCC)CCCCCCC [116b]
Particle size (nm) [1]: 120.13 nm
Particle-size distribution (PDI) [1]: 0.09
Total photon count in vivo at 6 hours after administration (Total Flux) (C57BL/6 mice): 1.96E+10
Encapsulation efficiency (%) [3]: 90.71%

CCCCCCCCCC(=O)OCC(C)(C)CCCCCN(CCCCO)CCCCCCCC(=O)OCC(CCCCCCC)CCCCCCC [117b]
Particle size (nm) [1]: 151.17 nm
Particle-size distribution (PDI) [1]: 0.09
Total photon count in vivo at 6 hours after administration (Total Flux) (C57BL/6 mice): 1.73E+10
Encapsulation efficiency (%) [3]: 72.51%

CCCCCCCCCOC(=O)C(C)(C)CCCCCCN(CCO)CCCCCCC(C)(C)C(=O)OC(CCCCCCCC)CCCCCCCC [Control group, reference compound]
Percentage of cationic lipids in the liver in the total dose, 24 h after administration (%) [2]: 92 ± 3.5%
Percentage of cationic lipids in the liver in the total dose, 72 h after administration (%) [2]: 89 ± 4.7%
Percentage of cationic lipids in the liver in the total dose, 72 h after administration (%) ([2]; listed as control group): about 90%
